Experimental data as given in US11643385B2, “Polymorphic forms of RAD1901-2HCl” (RADIUS PHARMACEUTICALS, INC., priority 2018, dated 2023).
Entries after “also recorded” stand apart in the source; their conditions may differ. Marks after values point to notes of the source that are not given here.

Experiment: Solubility assessment and polymorph screen on Sample 1 (Form 1) of RAD1901-2HCl in 24 solvent systems
Format: physicochemical
Conditions: 25 mg Sample 1; 10 vol. solvent (solvent per sample ID); stirred 25° C., shaken 50° C.
Procedure: Solubility assessment was carried out on the Sample 1 of RAD1901-2HCl (majorly Form 1 shown by XRPD) in 24 solvent systems in HPLC vials (sample IDs: A1 to A24). RAD1901-2HCl (25 mg) was treated with increasing volumes of solvent until the material fully dissolved or until a maximum of 60 vol had been used (Table 13).
After each addition of solvent, the system was stirred for 5 to 10 minutes at 25° C., then shaken at 50° C. for 5 to 10 minutes, and observations made. Samples were allowed to stand at room temperature for 5 min before the addition of a new aliquot of solvent. After the assessment was completed, the suspensions obtained were matured (maturation) and the clear solutions were cooled (cooling) and slowly evaporated (evaporation) as described below. All solids recovered from maturation, cooling and evaporation experiments were analyzed by high resolution XRPD.
The suspensions obtained during the solubility assessment were matured by shaken in a maturation chamber between 50° C. and RT (8 hr per cycle) for up to 5 days. Then the mixture was allowed to stand at room temperature for 10 minutes. The resulting solids were filtered and air dried and analyzed by XRPD. The clear solutions obtained during maturation were evaporated in ambient conditions and the resulting residues were analyzed by XRPD.
The clear solutions obtained during the course of the solubility assessment were cooled on a Polar Bear device from 50° C. to 5° C. at 0.1° C./min. Solids obtained upon cooling were recovered from the vials, air dried and analyzed by XRPD. If no solid was obtained, the solutions were evaporated slowly through a needle inserted into the septum cap of the vial until a solid appeared at ambient conditions and the resulting solids were filtered, air dried and analyzed by XRPD.

Compound | Solubility observation at 10 vol.
CCNCCc1ccc(CN(CC)c2cc(OC)ccc2[C@@H]2CCc3cc(O)ccc3C2)cc1.Cl.Cl [Form A10] | X (X = suspension)
CCNCCc1ccc(CN(CC)c2cc(OC)ccc2[C@@H]2CCc3cc(O)ccc3C2)cc1.Cl.Cl [Form A11] | S (S = solution)
CCNCCc1ccc(CN(CC)c2cc(OC)ccc2[C@@H]2CCc3cc(O)ccc3C2)cc1.Cl.Cl [Form A12] | +/− (+/− = nearly dissolved)
CCNCCc1ccc(CN(CC)c2cc(OC)ccc2[C@@H]2CCc3cc(O)ccc3C2)cc1.Cl.Cl [Form A13] | X (X = suspension)
CCNCCc1ccc(CN(CC)c2cc(OC)ccc2[C@@H]2CCc3cc(O)ccc3C2)cc1.Cl.Cl [Form A14] | X (X = suspension)
CCNCCc1ccc(CN(CC)c2cc(OC)ccc2[C@@H]2CCc3cc(O)ccc3C2)cc1.Cl.Cl [Form A15] | X (X = suspension)
CCNCCc1ccc(CN(CC)c2cc(OC)ccc2[C@@H]2CCc3cc(O)ccc3C2)cc1.Cl.Cl [Form A17] | X (X = suspension)
CCNCCc1ccc(CN(CC)c2cc(OC)ccc2[C@@H]2CCc3cc(O)ccc3C2)cc1.Cl.Cl [Form A19] | X (X = suspension)
CCNCCc1ccc(CN(CC)c2cc(OC)ccc2[C@@H]2CCc3cc(O)ccc3C2)cc1.Cl.Cl [Form A20] | +/− (+/− = nearly dissolved)
CCNCCc1ccc(CN(CC)c2cc(OC)ccc2[C@@H]2CCc3cc(O)ccc3C2)cc1.Cl.Cl [Form A22] | +/− (+/− = nearly dissolved)
CCNCCc1ccc(CN(CC)c2cc(OC)ccc2[C@@H]2CCc3cc(O)ccc3C2)cc1.Cl.Cl [Form A23] | X (X = suspension)
CCNCCc1ccc(CN(CC)c2cc(OC)ccc2[C@@H]2CCc3cc(O)ccc3C2)cc1.Cl.Cl [Form A24] | X (X = suspension)

Same assay, conditions: 20 vol. solvent (solvent per sample ID)

Compound | Solubility observation at 20 vol.
CCNCCc1ccc(CN(CC)c2cc(OC)ccc2[C@@H]2CCc3cc(O)ccc3C2)cc1.Cl.Cl [Form A10] | X (X = suspension)
CCNCCc1ccc(CN(CC)c2cc(OC)ccc2[C@@H]2CCc3cc(O)ccc3C2)cc1.Cl.Cl [Form A12] | S (S = solution)
CCNCCc1ccc(CN(CC)c2cc(OC)ccc2[C@@H]2CCc3cc(O)ccc3C2)cc1.Cl.Cl [Form A13] | X (X = suspension)
CCNCCc1ccc(CN(CC)c2cc(OC)ccc2[C@@H]2CCc3cc(O)ccc3C2)cc1.Cl.Cl [Form A14] | X (X = suspension)
CCNCCc1ccc(CN(CC)c2cc(OC)ccc2[C@@H]2CCc3cc(O)ccc3C2)cc1.Cl.Cl [Form A15] | X (X = suspension)
CCNCCc1ccc(CN(CC)c2cc(OC)ccc2[C@@H]2CCc3cc(O)ccc3C2)cc1.Cl.Cl [Form A17] | X (X = suspension)
CCNCCc1ccc(CN(CC)c2cc(OC)ccc2[C@@H]2CCc3cc(O)ccc3C2)cc1.Cl.Cl [Form A19] | X (X = suspension)
CCNCCc1ccc(CN(CC)c2cc(OC)ccc2[C@@H]2CCc3cc(O)ccc3C2)cc1.Cl.Cl [Form A20] | S (S = solution)
CCNCCc1ccc(CN(CC)c2cc(OC)ccc2[C@@H]2CCc3cc(O)ccc3C2)cc1.Cl.Cl [Form A22] | S (S = solution)
CCNCCc1ccc(CN(CC)c2cc(OC)ccc2[C@@H]2CCc3cc(O)ccc3C2)cc1.Cl.Cl [Form A23] | X (X = suspension)
CCNCCc1ccc(CN(CC)c2cc(OC)ccc2[C@@H]2CCc3cc(O)ccc3C2)cc1.Cl.Cl [Form A24] | X (X = suspension)

Same assay, conditions: 40 vol. solvent (solvent per sample ID)

Compound | Solubility observation at 40 vol.
CCNCCc1ccc(CN(CC)c2cc(OC)ccc2[C@@H]2CCc3cc(O)ccc3C2)cc1.Cl.Cl [Form A10] | X (X = suspension)
CCNCCc1ccc(CN(CC)c2cc(OC)ccc2[C@@H]2CCc3cc(O)ccc3C2)cc1.Cl.Cl [Form A13] | X (X = suspension)
CCNCCc1ccc(CN(CC)c2cc(OC)ccc2[C@@H]2CCc3cc(O)ccc3C2)cc1.Cl.Cl [Form A14] | X (X = suspension)
CCNCCc1ccc(CN(CC)c2cc(OC)ccc2[C@@H]2CCc3cc(O)ccc3C2)cc1.Cl.Cl [Form A15] | X (X = suspension)
CCNCCc1ccc(CN(CC)c2cc(OC)ccc2[C@@H]2CCc3cc(O)ccc3C2)cc1.Cl.Cl [Form A17] | X (X = suspension)
CCNCCc1ccc(CN(CC)c2cc(OC)ccc2[C@@H]2CCc3cc(O)ccc3C2)cc1.Cl.Cl [Form A19] | X (X = suspension)
CCNCCc1ccc(CN(CC)c2cc(OC)ccc2[C@@H]2CCc3cc(O)ccc3C2)cc1.Cl.Cl [Form A23] | +/− (+/− = nearly dissolved)
CCNCCc1ccc(CN(CC)c2cc(OC)ccc2[C@@H]2CCc3cc(O)ccc3C2)cc1.Cl.Cl [Form A24] | +/− (+/− = nearly dissolved)

Same assay, conditions: 50° C./RT cycles (8 hr per cycle) up to 5 days

Compound | Observation After 50/RT maturation
CCNCCc1ccc(CN(CC)c2cc(OC)ccc2[C@@H]2CCc3cc(O)ccc3C2)cc1.Cl.Cl [Form A21] | S

Same assay, conditions: 60 vol. solvent (solvent per sample ID)

Compound | Solubility observation at 60 vol.
CCNCCc1ccc(CN(CC)c2cc(OC)ccc2[C@@H]2CCc3cc(O)ccc3C2)cc1.Cl.Cl [Form A10] | X (X = suspension)
CCNCCc1ccc(CN(CC)c2cc(OC)ccc2[C@@H]2CCc3cc(O)ccc3C2)cc1.Cl.Cl [Form A13] | X (X = suspension)
CCNCCc1ccc(CN(CC)c2cc(OC)ccc2[C@@H]2CCc3cc(O)ccc3C2)cc1.Cl.Cl [Form A14] | X (X = suspension)
CCNCCc1ccc(CN(CC)c2cc(OC)ccc2[C@@H]2CCc3cc(O)ccc3C2)cc1.Cl.Cl [Form A15] | X (X = suspension)
CCNCCc1ccc(CN(CC)c2cc(OC)ccc2[C@@H]2CCc3cc(O)ccc3C2)cc1.Cl.Cl [Form A17] | X (X = suspension)
CCNCCc1ccc(CN(CC)c2cc(OC)ccc2[C@@H]2CCc3cc(O)ccc3C2)cc1.Cl.Cl [Form A19] | X (X = suspension)
CCNCCc1ccc(CN(CC)c2cc(OC)ccc2[C@@H]2CCc3cc(O)ccc3C2)cc1.Cl.Cl [Form A23] | S (S = solution)
CCNCCc1ccc(CN(CC)c2cc(OC)ccc2[C@@H]2CCc3cc(O)ccc3C2)cc1.Cl.Cl [Form A24] | S (S = solution)

Same assay, conditions: clear solutions cooled 50° C. to 5° C. at 0.1° C./min

Compound | Observation after Cooled to 5° C.
CCNCCc1ccc(CN(CC)c2cc(OC)ccc2[C@@H]2CCc3cc(O)ccc3C2)cc1.Cl.Cl [Form A11] | S
CCNCCc1ccc(CN(CC)c2cc(OC)ccc2[C@@H]2CCc3cc(O)ccc3C2)cc1.Cl.Cl [Form A12] | S
CCNCCc1ccc(CN(CC)c2cc(OC)ccc2[C@@H]2CCc3cc(O)ccc3C2)cc1.Cl.Cl [Form A20] | Platelet
CCNCCc1ccc(CN(CC)c2cc(OC)ccc2[C@@H]2CCc3cc(O)ccc3C2)cc1.Cl.Cl [Form A22] | Some
CCNCCc1ccc(CN(CC)c2cc(OC)ccc2[C@@H]2CCc3cc(O)ccc3C2)cc1.Cl.Cl [Form A23] | S
CCNCCc1ccc(CN(CC)c2cc(OC)ccc2[C@@H]2CCc3cc(O)ccc3C2)cc1.Cl.Cl [Form A24] | S

Same assay, conditions: slow evaporation at ambient conditions

Compound | Observation after Evaporation
CCNCCc1ccc(CN(CC)c2cc(OC)ccc2[C@@H]2CCc3cc(O)ccc3C2)cc1.Cl.Cl [Form A11] | S
CCNCCc1ccc(CN(CC)c2cc(OC)ccc2[C@@H]2CCc3cc(O)ccc3C2)cc1.Cl.Cl [Form A12] | Solid
CCNCCc1ccc(CN(CC)c2cc(OC)ccc2[C@@H]2CCc3cc(O)ccc3C2)cc1.Cl.Cl [Form A23] | Solids,
CCNCCc1ccc(CN(CC)c2cc(OC)ccc2[C@@H]2CCc3cc(O)ccc3C2)cc1.Cl.Cl [Form A24] | Solids

Same assay, conditions: solid recovered after maturation, cooling or evaporation

Compound | XRPD of recovered solid (form)
CCNCCc1ccc(CN(CC)c2cc(OC)ccc2[C@@H]2CCc3cc(O)ccc3C2)cc1.Cl.Cl [Form A10] | Form 1
CCNCCc1ccc(CN(CC)c2cc(OC)ccc2[C@@H]2CCc3cc(O)ccc3C2)cc1.Cl.Cl [Form A12] | Form 3
CCNCCc1ccc(CN(CC)c2cc(OC)ccc2[C@@H]2CCc3cc(O)ccc3C2)cc1.Cl.Cl [Form A13] | Form 1
CCNCCc1ccc(CN(CC)c2cc(OC)ccc2[C@@H]2CCc3cc(O)ccc3C2)cc1.Cl.Cl [Form A14] | Form 1
CCNCCc1ccc(CN(CC)c2cc(OC)ccc2[C@@H]2CCc3cc(O)ccc3C2)cc1.Cl.Cl [Form A15] | Form 1
CCNCCc1ccc(CN(CC)c2cc(OC)ccc2[C@@H]2CCc3cc(O)ccc3C2)cc1.Cl.Cl [Form A17] | Form 1
CCNCCc1ccc(CN(CC)c2cc(OC)ccc2[C@@H]2CCc3cc(O)ccc3C2)cc1.Cl.Cl [Form A19] | Form 1
CCNCCc1ccc(CN(CC)c2cc(OC)ccc2[C@@H]2CCc3cc(O)ccc3C2)cc1.Cl.Cl [Form A20] | Pattern 3; also recorded: Form 3
CCNCCc1ccc(CN(CC)c2cc(OC)ccc2[C@@H]2CCc3cc(O)ccc3C2)cc1.Cl.Cl [Form A22] | Form 3*
CCNCCc1ccc(CN(CC)c2cc(OC)ccc2[C@@H]2CCc3cc(O)ccc3C2)cc1.Cl.Cl [Form A23] | Form 3
CCNCCc1ccc(CN(CC)c2cc(OC)ccc2[C@@H]2CCc3cc(O)ccc3C2)cc1.Cl.Cl [Form A24] | Form 3
